Values quoted from earlier work in patent publication US20130101569A1, “HAIR GROWTH STIMULANT” (priority 2011, published 2013).

Legend:
[1] = system: healthy, older adults with mild memory complaints; settings: taken for six months; 485 subjects aged 55 and older
[2] = not carbohydrates

| Compound | heart rate [1] | memory and learning [1] | cravings for fat [2] |
| --- | --- | --- | --- |
| CC/C=C\C/C=C\C/C=C\C/C=C\C/C=C\C/C=C\CCC(=O)O [algal DHA, 4Z,7Z,10Z,13Z,16Z,19Z)-docosa-4,7,10,13,16,19-hexaenoic acid] | decreased heart rate | improved memory and learning |  |
| Chromium(III) picolinate [chromium picolinate] |  |  | reduce cravings for fat |
